Here are results for two compounds from paper PMC8284444, “Two β-Lactamase Variants with Reduced Clavulanic Acid Inhibition Display Different Millisecond Dynamics” (Antimicrobial Agents and Chemotherapy, 2021).

Assay type in all cases: biochemical
The target in assay [1] is BlaC (β-lactamase of Mycobacterium tuberculosis) (Mycobacterium tuberculosis, UniProt P9WKD3, K250R).
Assay [2] addresses BlaC (β-lactamase of Mycobacterium tuberculosis) (Mycobacterium tuberculosis, UniProt P9WKD3, R229S).
The target of assay [3] is T1, BlaC (β-lactamase of Mycobacterium tuberculosis) (Mycobacterium tuberculosis, UniProt P9WKD3, G144N).
Assay [4] concerns the target T1, BlaC (β-lactamase of Mycobacterium tuberculosis). This is another data set of the same source.

Consider `O=C(O)[C@H]1/C(=C/CO)O[C@@H]2CC(=O)N21` [clavulanic acid], for which the “nitrocefin hydrolysis progress curves with 10 μM clavulanic acid (reduced inhibi)” value in assay [1] is “The G132N and K234R mutations convey resistance to inhibition, maintaining some level of activity even after prolonged exposure”; in assay [3], “The G132N and K234R mutations convey resistance to inhibition, maintaining some level of activity even after prolonged exposure”. The “nitrocefin hydrolysis progress curves with 10 μM clavulanic acid” value in assay [2] is listed as “The R213S mutant was found to require more time than wt BlaC to reach full inhibition”.
Take `O=C(Cc1cccs1)N[C@@H]1C(=O)N2C(C(=O)O)=C(/C=C/c3ccc([N+](=O)[O-])cc3[N+](=O)[O-])CS[C@H]12` [nitrocefin]: in assay [4], the “nitrocefin hydrolysis by purified enzyme” value was “is plotted for wild-type (WT) BlaC and single-amino-acid mutants”.
